Laboratory results taken from ChEMBL document CHEMBL5465560, “Selectivity Literature for EUbOPEN Chemogenomic Library” (2024).

Key:
[1] = molecular target: T1, TGF-beta receptor type-1 (Homo sapiens) (UniProt P36897); assay: Selectivity interaction (KinomeScan (DiscoverX)) EUB0000229b TGFBR1; settings: at 10 µM
T1 sequence (whole entry): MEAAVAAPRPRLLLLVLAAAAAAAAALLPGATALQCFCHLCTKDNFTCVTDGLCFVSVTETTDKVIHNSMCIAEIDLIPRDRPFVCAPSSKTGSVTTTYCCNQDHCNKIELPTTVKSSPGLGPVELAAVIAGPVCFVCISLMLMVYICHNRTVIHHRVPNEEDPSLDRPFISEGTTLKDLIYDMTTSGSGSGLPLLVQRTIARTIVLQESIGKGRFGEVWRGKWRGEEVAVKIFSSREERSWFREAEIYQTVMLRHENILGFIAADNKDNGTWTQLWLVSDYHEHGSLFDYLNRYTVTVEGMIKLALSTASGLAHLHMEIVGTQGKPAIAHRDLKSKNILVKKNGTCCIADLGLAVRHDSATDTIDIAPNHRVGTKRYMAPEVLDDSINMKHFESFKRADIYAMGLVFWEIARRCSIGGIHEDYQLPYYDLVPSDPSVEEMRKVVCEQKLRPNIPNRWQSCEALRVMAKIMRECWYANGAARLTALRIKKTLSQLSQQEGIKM

[2] = molecular target: Sodium-dependent serotonin transporter (Homo sapiens, UniProt P31645); assay: Selectivity interaction (Panel of kinases, GPCRs, ion channels and transporters (enzymatic assay)) EUB0000266bCl SLC6A4
[3] = molecular target: T2, Serine/threonine-protein kinase DCLK3 (Homo sapiens) (UniProt Q9C098); assay: Selectivity interaction (KinomeScan (DiscoverX)) EUB0001079a DCLK3; settings: at 1 µM
T2 sequence (whole entry): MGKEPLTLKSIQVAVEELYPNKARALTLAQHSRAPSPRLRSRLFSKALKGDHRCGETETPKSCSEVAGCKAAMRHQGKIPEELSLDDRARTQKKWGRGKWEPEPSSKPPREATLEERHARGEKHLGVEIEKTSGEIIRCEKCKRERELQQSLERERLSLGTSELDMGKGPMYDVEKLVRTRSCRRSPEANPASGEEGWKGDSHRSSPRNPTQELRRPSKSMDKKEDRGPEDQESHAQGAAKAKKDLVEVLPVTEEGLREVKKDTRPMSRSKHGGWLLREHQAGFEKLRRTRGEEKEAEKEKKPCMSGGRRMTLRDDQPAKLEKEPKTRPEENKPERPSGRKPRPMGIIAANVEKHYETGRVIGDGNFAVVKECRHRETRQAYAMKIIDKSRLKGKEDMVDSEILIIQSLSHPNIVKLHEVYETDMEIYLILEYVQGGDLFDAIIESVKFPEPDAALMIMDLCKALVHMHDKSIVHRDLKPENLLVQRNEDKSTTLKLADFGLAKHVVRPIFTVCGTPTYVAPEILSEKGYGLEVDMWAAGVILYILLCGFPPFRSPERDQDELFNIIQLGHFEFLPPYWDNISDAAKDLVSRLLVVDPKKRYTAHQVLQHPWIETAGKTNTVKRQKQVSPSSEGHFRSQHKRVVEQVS

[4] = molecular target: T3, Cyclin-dependent kinase 11A (Homo sapiens) (UniProt Q9UQ88); assay: Selectivity interaction (Kinase panel (KiNativ target engagement assay in Jurkat cells)) EUB0001635a CDK11A; assay type: cell-based; settings: Selectivity number of off-targets 0.0, Selectivity number of targets 233.0, Source Knowledge https://www.sciencedirect.com/science/article/pii/S2451945619300674?via%3Dihub, at 1 µM
T3 sequence (whole entry): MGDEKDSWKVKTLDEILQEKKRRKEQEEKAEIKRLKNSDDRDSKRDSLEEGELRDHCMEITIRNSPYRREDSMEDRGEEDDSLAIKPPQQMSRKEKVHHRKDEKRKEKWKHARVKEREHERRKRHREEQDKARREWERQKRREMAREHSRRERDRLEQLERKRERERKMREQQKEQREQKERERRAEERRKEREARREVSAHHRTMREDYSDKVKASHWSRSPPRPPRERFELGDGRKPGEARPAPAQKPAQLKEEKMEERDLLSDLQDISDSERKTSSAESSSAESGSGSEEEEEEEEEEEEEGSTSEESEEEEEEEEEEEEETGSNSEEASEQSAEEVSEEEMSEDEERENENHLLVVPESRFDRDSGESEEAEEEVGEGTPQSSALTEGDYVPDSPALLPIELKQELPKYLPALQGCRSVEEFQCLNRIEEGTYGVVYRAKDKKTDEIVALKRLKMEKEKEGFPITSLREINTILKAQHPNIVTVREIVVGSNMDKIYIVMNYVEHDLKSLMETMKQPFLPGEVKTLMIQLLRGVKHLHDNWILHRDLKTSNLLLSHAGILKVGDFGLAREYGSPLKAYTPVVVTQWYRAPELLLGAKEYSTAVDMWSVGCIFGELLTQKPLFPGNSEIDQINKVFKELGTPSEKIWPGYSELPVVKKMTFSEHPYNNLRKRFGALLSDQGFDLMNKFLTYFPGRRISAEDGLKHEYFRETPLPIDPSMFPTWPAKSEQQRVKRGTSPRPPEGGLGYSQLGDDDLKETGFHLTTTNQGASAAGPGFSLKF

[5] = molecular target: Serine/threonine-protein kinase NIM1 (Homo sapiens, UniProt Q8IY84); assay: Selectivity interaction (KinomeScan (DiscoverX)) EUB0000607a NIM1K; settings: at 10 µM
[6] = molecular target: Protein arginine N-methyltransferase 8 (Homo sapiens, UniProt Q9NR22); assay: Selectivity interaction (Methyltransferase screen (radiometric assays, panel of 8 PRMTs, 21 protein lysine methyltransferases, 3 DNA methyltransferases, and one RNA methyltransferase)) EUB0000271b PRMT8
Protein arginine N-methyltransferase 8, sequence (Q9NR22 2-394 limits assumed): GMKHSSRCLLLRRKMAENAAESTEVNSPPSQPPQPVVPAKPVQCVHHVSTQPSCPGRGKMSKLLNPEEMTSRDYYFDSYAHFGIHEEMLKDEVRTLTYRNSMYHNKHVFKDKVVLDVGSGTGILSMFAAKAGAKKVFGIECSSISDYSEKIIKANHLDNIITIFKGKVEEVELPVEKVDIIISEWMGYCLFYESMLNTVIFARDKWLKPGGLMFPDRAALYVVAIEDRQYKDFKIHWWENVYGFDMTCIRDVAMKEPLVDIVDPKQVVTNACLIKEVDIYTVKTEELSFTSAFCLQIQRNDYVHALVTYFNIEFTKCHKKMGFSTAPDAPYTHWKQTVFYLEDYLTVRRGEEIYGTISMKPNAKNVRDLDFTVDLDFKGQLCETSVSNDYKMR

Sodium-dependent serotonin transporter, sequence (P31645 whole entry, looked up): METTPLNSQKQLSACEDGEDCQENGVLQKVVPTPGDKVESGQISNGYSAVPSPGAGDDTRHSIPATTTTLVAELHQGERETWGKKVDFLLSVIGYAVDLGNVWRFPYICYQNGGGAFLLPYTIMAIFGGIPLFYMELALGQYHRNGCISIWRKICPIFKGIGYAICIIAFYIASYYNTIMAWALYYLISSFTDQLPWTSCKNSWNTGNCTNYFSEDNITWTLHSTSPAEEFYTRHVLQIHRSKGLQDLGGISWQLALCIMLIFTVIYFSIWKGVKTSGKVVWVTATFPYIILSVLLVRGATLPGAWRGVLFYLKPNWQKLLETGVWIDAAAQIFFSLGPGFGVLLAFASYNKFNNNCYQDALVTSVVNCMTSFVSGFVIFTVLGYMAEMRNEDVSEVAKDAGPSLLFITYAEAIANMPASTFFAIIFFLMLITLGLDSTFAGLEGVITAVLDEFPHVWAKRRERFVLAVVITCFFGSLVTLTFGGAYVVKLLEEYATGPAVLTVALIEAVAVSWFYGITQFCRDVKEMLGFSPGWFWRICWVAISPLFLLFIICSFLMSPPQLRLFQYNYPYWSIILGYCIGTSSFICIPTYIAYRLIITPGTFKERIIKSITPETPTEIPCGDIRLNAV
Serine/threonine-protein kinase NIM1, sequence (Q8IY84 whole entry): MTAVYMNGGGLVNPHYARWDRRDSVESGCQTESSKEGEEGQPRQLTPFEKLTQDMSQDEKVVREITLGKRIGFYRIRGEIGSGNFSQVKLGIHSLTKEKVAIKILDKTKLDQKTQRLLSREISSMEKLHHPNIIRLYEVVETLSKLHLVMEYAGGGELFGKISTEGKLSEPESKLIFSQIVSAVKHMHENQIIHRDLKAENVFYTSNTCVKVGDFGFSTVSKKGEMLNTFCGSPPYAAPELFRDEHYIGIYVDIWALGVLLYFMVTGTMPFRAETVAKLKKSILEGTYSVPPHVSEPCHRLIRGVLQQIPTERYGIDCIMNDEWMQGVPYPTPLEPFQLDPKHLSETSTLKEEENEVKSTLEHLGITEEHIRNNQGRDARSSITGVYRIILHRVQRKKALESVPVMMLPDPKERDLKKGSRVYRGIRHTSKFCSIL

COc1cc(N(C)c2ccnc3ccc(C(F)(F)F)cc23)cc(OC)c1OC
% binding [1]: 89%

CCn1c(-c2nc3cc(C(=O)N4CCCC(N)C4)ccc3n2C)cc2ccccc21 (configuration not stated)
pXC50 [2]: 4.7 M

Nc1cnc(N2CCc3cc(S(=O)(=O)Nc4c(F)cc(Cl)cc4F)cc(N4CCCC4=O)c32)nc1 [TP-020n]
% of control [3]: 85%

C=CC(=O)Nc1ccc(C(=O)Nc2[nH]nc3c2CN(C(=O)N[C@H](CN(C)C)c2ccccc2)C3(C)C)cc1
% of engagement [4]: -15.7%

CNC(=O)Nc1ccc(-c2nc(N3CC4CCC(C3)O4)c3cnn(C4CCC5(CC4)OCCO5)c3n2)cc1
% of control [5]: 100%

Cc1cc(C)cc([C@@H]2c3cc(C)ccc3NC(=O)CN2C(=O)c2ccc(Br)s2)c1
% of activity ([6]; at 1 µM): 101% | % of activity ([6]; at 10 µM): 96%
